Experimental data published in US11534452B2, “Nucleic acid molecules for reduction of PAPD5 or PAPD7 mRNA for treating hepatitis B infection” (HOFFMANN-LA ROCHE INC., priority 2016, dated 2022).

Columns and labels:
PAPD5 [1] = molecular target: T1, PAPD5 (Homo sapiens, UniProt Q8NDF8); test: Y3H ULTImate YChemH competition with free compound; format: binding; conditions: PAPD5 var1 fragment and full length; probe HBX129653 or HBX129654 1 μM; free compound 0-20 μM; FIG. 3-6
T1 construct: full length proteins for PAPD5 and PAPD7 were synthesized and used for 1-by-1 validation; expressed in transfected cells; host or cells: diploid yeast (YHGX13 with the prey plasmid mated to YPT6AT with the DHFR hook)
Protocol: (§1) The competition assays were performed on selective medium at 8 concentrations of the free compound (0, 0.25, 0.5, 1, 2, 5, 10 and 20 μM) and a consistent concentration for the tagged Y3H-compound (1 μM).

PAPD7 [2] = molecular target: T2, PAPD7 (Homo sapiens, UniProt Q5XG87); test: Y3H ULTImate YChemH competition with free compound; format: binding; conditions: PAPD7 varX1 fragment and full length; probe HBX129653 or HBX129654 1 μM; free compound 0-20 μM; FIG. 3-6
T2 construct: full length proteins for PAPD5 and PAPD7 were synthesized and used for 1-by-1 validation; expressed in transfected cells; host or cells: diploid yeast (YHGX13 with the prey plasmid mated to YPT6AT with the DHFR hook)
Protocol: as §1

PAPD7 [3] = test: Y3H ULTImate YChemH 1-by-1 validation (prey fragments, full length proteins); format: binding, Human; conditions: PAPD7 fragment; already at the lowest tested concentration (5 of 5, 10, 20 μM); FIG. 1
Protocol: (§2) In this validation step each one identified fragment prey and one chemical probe (HBX129653, HBX129654) is tested in a 1-by-1 experiment. The plasmids from 3 selected preys from the screening library were extracted from the yeast cells, amplified in E. coli and re-transformed into YHGX13 yeast cells. For each interaction, DO1, 1/10, 1/100 and 1/1000 of the diploid yeast culture expressing both hook and prey constructs were spotted on a selective medium without tryptophan, leucine and histidine and supplemented with the chemical probe and FK506. Interactions were tested in duplicate. One plate was used per chemical compound and concentration (DMSO, 5, 10 and 20 μM of HBX129653, 5, 10 and 20 μM of HBX129654, 5 μM of HBX24786 Trimethoprim (TMP) and 5 μM of HBX129634 (TMP-PEG5-OH)). Plates were incubated at 30° C. for 3 days.
(§3) The coding sequence of full-length PAPD5var1 (NM_001040284.2) and PAPD7varX1 (XM_005248234.2) were reconstituted from an N-terminal codon-optimized gene fragment (to remove high GC content) and commercially available clones of the C-terminal regions of the proteins and cloned in frame with the Gal4 Activation Domain (AD) into plasmid pP7 (AD-Prey), derived from the original pGADGH (Bartel et al., 1993 in Cellular interactions in development: A practical approach. ed. Hartley, D. A., Oxford University Press, Oxford, pp. 153-179). The constructs were checked by sequencing the entire inserts. For each prey, a mini-mating was carried out between YHGX13 (Y187 ade2-101::loxP-kanMX-loxP, mata) transformed with the prey plasmids and YPT6AT yeast cells (mata) transformed with the DHFR hook (Dihydrofolate reductase) to produce a diploid yeast culture. For each interaction, DO1, 1/10, 1/100 and 1/1000 of the diploid yeast culture expressing both hook and prey constructs were spotted on a selective medium without tryptophan, leucine and histidine and supplemented with the chemical probe and FK506. Interactions were tested in duplicate. One plate was used per chemical compound and concentration (DMSO, 5, 10 and 20 μM of HBX129653, 5, 10 and 20 μM of HBX129654, 5 μM of HBX24786 Trimethoprim (TMP) and 5 μM of HBX129634 (TMP-PEG5-OH)). Plates were incubated at 30° C. for 3 days.
(§4) In a first validation step three fragments identified in the first screen were selected for the 1-by-1 validation assay (as described in the Materials and Method section) and tested at three different concentrations ([…]) (Table 11).
(§5) In a second validation step, full length proteins for PAPD5 and PAPD7 were synthesized and used for 1-by-1 validation (as described in the Materials and Method section) with DHQ and THP (Table 12).

PAPD5 [4] = molecular target: T1, PAPD5; test: as above; format: binding; conditions: PAPD5 var1 full length; FIG. 2
Protocol: as §2, §3, §4, §5

PAPD7 [5] = molecular target: T2, PAPD7; test: as above; format: binding; conditions: PAPD7 full length; FIG. 2
Protocol: as §2, §3, §4, §5

PAPD5 [6] = test: as above; format: binding, Human; conditions: PAPD5 variant 1 and variant 2 fragments; already at the lowest tested concentration (5 of 5, 10, 20 μM); FIG. 1
Protocol: as §2, §3, §4, §5

T2 sequence (Q5XG87 whole entry, the tested form may be a part): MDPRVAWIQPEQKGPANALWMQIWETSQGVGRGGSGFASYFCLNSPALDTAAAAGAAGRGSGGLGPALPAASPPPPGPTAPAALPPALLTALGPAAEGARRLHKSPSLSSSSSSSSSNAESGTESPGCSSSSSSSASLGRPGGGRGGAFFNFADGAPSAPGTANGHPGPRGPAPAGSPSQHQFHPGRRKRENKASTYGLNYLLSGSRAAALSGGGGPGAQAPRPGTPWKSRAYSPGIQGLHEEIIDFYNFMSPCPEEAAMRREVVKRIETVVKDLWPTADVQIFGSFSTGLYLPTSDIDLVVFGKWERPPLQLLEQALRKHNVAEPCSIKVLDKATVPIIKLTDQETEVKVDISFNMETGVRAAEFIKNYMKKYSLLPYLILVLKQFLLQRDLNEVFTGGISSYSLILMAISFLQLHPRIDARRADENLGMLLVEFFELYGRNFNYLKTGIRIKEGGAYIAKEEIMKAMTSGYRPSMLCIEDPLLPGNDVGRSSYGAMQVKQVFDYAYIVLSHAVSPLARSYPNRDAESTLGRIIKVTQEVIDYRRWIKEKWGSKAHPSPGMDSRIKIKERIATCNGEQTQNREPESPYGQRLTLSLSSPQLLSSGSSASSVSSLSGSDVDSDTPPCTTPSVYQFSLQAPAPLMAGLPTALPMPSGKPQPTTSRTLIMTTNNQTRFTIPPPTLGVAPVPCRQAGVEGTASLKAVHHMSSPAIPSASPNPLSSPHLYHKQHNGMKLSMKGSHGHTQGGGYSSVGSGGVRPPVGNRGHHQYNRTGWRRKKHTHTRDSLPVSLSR
T1 sequence (Q8NDF8 1-698 isoform Q8NDF8-5): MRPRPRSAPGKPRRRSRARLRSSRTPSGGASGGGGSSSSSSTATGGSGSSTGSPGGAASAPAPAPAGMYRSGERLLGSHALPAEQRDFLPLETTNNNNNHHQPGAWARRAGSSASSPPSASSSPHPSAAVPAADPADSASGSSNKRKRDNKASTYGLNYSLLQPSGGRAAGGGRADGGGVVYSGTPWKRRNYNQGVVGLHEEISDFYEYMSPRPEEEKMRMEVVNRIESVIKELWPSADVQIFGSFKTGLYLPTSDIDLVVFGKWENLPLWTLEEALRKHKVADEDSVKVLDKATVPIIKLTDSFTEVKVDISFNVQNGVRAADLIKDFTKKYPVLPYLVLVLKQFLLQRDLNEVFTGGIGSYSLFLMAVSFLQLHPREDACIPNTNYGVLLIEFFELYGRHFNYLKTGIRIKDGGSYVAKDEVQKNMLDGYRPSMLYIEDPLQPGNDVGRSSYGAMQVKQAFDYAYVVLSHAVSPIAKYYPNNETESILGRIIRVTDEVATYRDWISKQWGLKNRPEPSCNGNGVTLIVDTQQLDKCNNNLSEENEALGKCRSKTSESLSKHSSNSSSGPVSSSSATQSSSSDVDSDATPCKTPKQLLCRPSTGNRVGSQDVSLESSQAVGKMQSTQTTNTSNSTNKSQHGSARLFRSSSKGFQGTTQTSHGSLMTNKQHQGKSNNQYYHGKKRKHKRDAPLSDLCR

| competition of free compound with the chemical probe (PAPD5 [1]) | competition of free compound with the chemical probe (PAPD7 [2]) | SMILES | 1-by-1 validation of prey fragments as binders (PAPD7 [3]) | 1-by-1 validation, interaction with full length protein (PAPD5 [4]) | 1-by-1 validation, interaction with full length protein (PAPD7 [5]) | 1-by-1 validation of prey fragments as binders (PAPD5 [6]) |
| --- | --- | --- | --- | --- | --- | --- |
| competition could be observed | competition could be observed | COc1cc(N2CCc3nc(-c4ncccn4)ncc3[C@H]2C)cc(F)c1F [MOL654] | validated as specific binders | confirmed at the lowest tested concentration | confirmed at the lowest tested concentration | validated as specific binders |
| competition could be observed | competition could be observed | COCCCOc1cc2c(cc1Cl)-c1cc(=O)c(C(=O)O)cn1[C@H](C(C)C)C2 [MOL653] | validated as specific binders | confirmed at the lowest tested concentration | confirmed at the lowest tested concentration | validated as specific binders |
